Experimental findings from EP4537815A1, “COMPOSITION COMPRISING A LASSO PEPTIDE […] A PHARMACEUTICALLY ACCEPTABLE NANOEMULSION” (priority 2023, dated 2025) are described below.

Experiment [1] relates to E. faecalis V583 (exhibiting VanB resistance). The experiment in a line: Vancomycin MIC by microdilution (CLSI) in GM17, VanB-resistant strain, with or without lasso peptide. It counts as cell-based. The following applies: VanB-type. How it is done: (§1) An evaluation of bacterial growth was performed in vitro to assess the bacterial response to either vancomycin or bacitracin, in the absence or in the presence of either sviceucin or siamycin I.
(§2) Each strain was cultured at 37 °C in M17 medium (Terzaghi and Sandine 1975) supplemented with 0.5 % (weight/volume) glucose (GM17 medium). Overnight cultures are grown in GM17 broth and are used to inoculate the cultures for MIC measurement.
(§3) Lyophilized lasso peptides were solubilized first at 800 µM in a 1:1 solution of sterilized pure water and methanol. This stock is used for subsequent dilutions in GM17.
(§4) The measurement of the minimal inhibitory concentration (MIC) of antibiotic (either vancomycin or bacitracin) was determined by the microdilution method in accordance with the guidelines of the Clinical and Laboratory Standards Institute (CLSI 2012), with GM17 medium used as a growth medium. Subsequent 2-fold serial dilutions of the antibiotic (either vancomycin or bacitracin) were performed to obtain concentrations ranging from 0.5 to 512 µg/mL.
(§5) The lasso peptides (either siamycin I or sviceucin) were added for the relevant conditions at a final concentration of 10 µM, 5 µM or 2.5 µM. Bacterial strains from overnight cultures were added with an inoculum of 5 x 10^5 CFU/mL. The MIC corresponds to the lowest concentration in the wells where no growth is observed. […]
A general note: Broth dilution looks for growth in wells or tubes with falling amounts of substance.

Experiment [2] relates to E. faecium Bi21 (exhibiting VanA resistance), E. faecium Bi22 (exhibiting VanA resistance). The experiment in a line: Vancomycin MIC by microdilution (CLSI) in GM17, VanA-resistant strains, with or without lasso peptide. Format: cell-based. How it is done: as §1, §2, §3, §4, §5
Experiment [3] relates to bacitracin resistant Gram-positive bacteria belonging to the Enterococcus genus. The experiment in a line: Bacitracin MIC by microdilution (CLSI) in GM17, with or without lasso peptide. It counts as cell-based. How it is done: as §1, §2, §3, §4, §5
Experiment [4] concerns E. faecalis V583, E. faecium Bi21, E. faecium Bi22. The experiment in a line: In vitro bacterial growth in the presence of the lasso peptide alone. Format: cell-based, Enterococcus. How it is done:
as §1, §2, §3
The lasso peptides (either siamycin I or sviceucin) were added for the relevant conditions at a final concentration of 10 µM, 5 µM or 2.5 µM. Bacterial strains from overnight cultures were added with an inoculum of 5 x 10^5 CFU/mL. The MIC corresponds to the lowest concentration in the wells where no growth is observed.

“Also recorded” adds a separate entry of the source. Where a SMILES comes first, the peptide text is derived from it. Bridges are numbered along the chain shown (N, C = ends).

Take `CC[C@H](C)[C@@H]1NC(=O)[C@H](C)NC(=O)[C@H](Cc2ccc(O)cc2)NC(=O)CNC(=O)[C@@H]2CSSC[C@@H]3NC(=O)C[C@H](NC(=O)[C@H](CC(N)=O)NC(=O)[C@H](CSSC[C@@H](C(=O)N[C@@H](Cc4ccccc4)C(=O)N[C@@H](Cc4c[nH]c5ccccc45)C(=O)O)NC(=O)[C@H](C(C)C)NC1=O)NC(=O)[C@H](CO)NC(=O)CNC(=O)[C@H](C(C)C)NC(=O)CNC(=O)[C@H](CC(C)C)NC3=O)C(=O)N[C@@H](Cc1ccccc1)C(=O)N[C@@H](C)C(=O)NCC(=O)N2` [Siamycin I, siamycin I] (CLGVGSCNDFAGCGYAIVCFW-OH; disulfide 1-13, 7-19 (inferred); lactam N-9 (inferred); C-terminus assumed): the “effect on vancomycin resistance” value in experiment [1] (lasso peptide at 2.5 µM combined with vancomycin) is listed as “reverses vancomycin resistance”; in experiment [2] (lasso peptide at 2.5 µM combined with vancomycin, VanA-type), “reverses vancomycin resistance”. For the same molecule, in experiment [2] (in the presence of the lasso peptide at 5 µM), the “Vancomycin MIC (VanA-resistant strains)” value came out at 0 µg/mL. Besides, in experiment [3] (lasso peptide at 2.5 µM combined with bacitracin), the “effect on bacitracin resistance” value was “reverses bacitracin resistance”. The “Growth in the presence of the lasso peptide alone” value in experiment [4] (lasso peptide at 2.5 µM) is recorded as “Growth slowed down but not inhibited”; in experiment [4] (lasso peptide at 5 µM) it was “exhibits a growth inhibition activity; also recorded: Growth inhibited”.

Turning to `CC[C@H](C)[C@@H]1NC(=O)[C@H](Cc2c[nH]c3ccccc23)NC(=O)[C@H](C)NC(=O)[C@H]([C@@H](C)O)NC(=O)CNC(=O)[C@@H]2CSSC[C@@H]3NC(=O)C[C@H](NC(=O)[C@H]([C@@H](C)O)NC(=O)[C@H](CSSC[C@@H](C(=O)N[C@H](C(=O)O)C(C)C)NC1=O)NC(=O)[C@H](CC(=O)O)NC(=O)CNC(=O)CNC(=O)[C@H](Cc1c[nH]c4ccccc14)NC(=O)[C@H](C(C)C)NC3=O)C(=O)N[C@@H](Cc1ccccc1)C(=O)N[C@@H](CC(C)C)C(=O)NCC(=O)N2` [Sviceucin, sviceucin] (CVWGGDCTDFLGCGTAWICV-OH; disulfide 1-13, 7-19 (inferred); lactam N-9 (inferred); C-terminus assumed), the “effect on vancomycin resistance” value in experiment [1] (lasso peptide at 10 µM combined with vancomycin) is on record as “reverses vancomycin resistance”. Further, the “effect on bacitracin resistance” value in experiment [3] (lasso peptide at 10 µM combined with bacitracin) was “reverses bacitracin resistance”.
